In the Kinase Knowledgebase extract (Sharma et al. 2016):

Tests used:
[1] = target: MAPK14 (human) (UniProt Q16539); assay: Inhibition of LPS Stimulated TNF Production by U937 Cells; settings: for inhibition: concentration not given here
[2] = target: MAPK14 (human) (UniProt Q16539); assay: Inhibition of MAPK14 Kinase Activity by PHAS-I Assay; settings: for inhibition: concentration not given here

MAPK14 (human), sequence (Q16539 whole entry, looked up): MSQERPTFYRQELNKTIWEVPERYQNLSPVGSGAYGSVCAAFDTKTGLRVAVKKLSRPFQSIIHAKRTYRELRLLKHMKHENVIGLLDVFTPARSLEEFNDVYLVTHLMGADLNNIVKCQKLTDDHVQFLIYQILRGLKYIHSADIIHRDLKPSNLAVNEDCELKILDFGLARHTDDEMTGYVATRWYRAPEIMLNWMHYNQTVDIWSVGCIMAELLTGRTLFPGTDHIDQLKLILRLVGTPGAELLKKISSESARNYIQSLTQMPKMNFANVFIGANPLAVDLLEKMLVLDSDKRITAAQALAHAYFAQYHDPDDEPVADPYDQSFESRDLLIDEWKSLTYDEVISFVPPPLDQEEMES

COc1ccc(CC(=O)NCCc2[nH]nc(-c3ccc(F)cc3)c2-c2ccncc2)cc1
inhibition [1]: 42%
inhibition [2]: 55%

O=S(=O)(Cc1ccccc1)NCCc1[nH]nc(-c2ccc(F)cc2)c1-c1ccncc1
inhibition [1]: 58%
inhibition [2]: 96%

CCOC(=O)c1cccc(NC(=O)NCCc2[nH]nc(-c3ccc(F)cc3)c2-c2ccncc2)c1
inhibition [1]: 2%
inhibition [2]: 82%

C[C@@H](NS(=O)(=O)c1ccccc1C(=O)O)c1[nH]nc(-c2ccc(F)cc2)c1-c1ccncc1
inhibition [1]: 59%
IC50 [2]: 580 nM

N#Cc1ccc(C(=O)NCc2[nH]nc(-c3ccc(F)cc3)c2-c2ccncc2)cc1
inhibition [1]: 40%
inhibition [2]: 53%

O=S(=O)(NCCCc1[nH]nc(-c2ccc(F)cc2)c1-c1ccncc1)C(F)(F)F
inhibition [1]: 68%
inhibition [2]: 74%

COc1ccc(Br)cc1S(=O)(=O)N[C@@H](C)c1[nH]nc(-c2ccc(F)cc2)c1-c1ccncc1
inhibition [1]: 81%
IC50 [2]: 1780 nM

CCN(CC)C(=O)NCCc1[nH]nc(-c2ccc(F)cc2)c1-c1ccncc1
inhibition [1]: 19%
inhibition [2]: 67%

CCOC(=O)CNC(=O)NCc1[nH]nc(-c2ccc(F)cc2)c1-c1ccncc1
inhibition [1]: 27%
inhibition [2]: 70%

O=S(=O)(NCc1[nH]nc(-c2ccc(F)cc2)c1-c1ccncc1)c1cc2nnoc2c2ccccc12
inhibition [1]: 32%
inhibition [2]: 50%

O=C(N[C@H](Cc1ccccc1)c1[nH]nc(-c2ccc(F)cc2)c1-c1ccncc1)c1ccccc1I
inhibition [1]: 34%
IC50 [2]: 540 nM

CCCCCSc1cccc(NC(=O)Cn2nc(-c3ccc(F)cc3)c(-c3ccncc3)c2C)c1
IC50 [1]: > 10000 nM
inhibition [2]: 94%

O=C(NCCc1[nH]nc(-c2ccc(F)cc2)c1-c1ccncc1)[C@H]1CCCN1
inhibition [1]: 63%
inhibition [2]: 89%

COC(=O)C(=O)NCc1[nH]nc(-c2ccc(F)cc2)c1-c1ccncc1
inhibition [1]: 79%
inhibition [2]: 89%

O=C(NCCc1[nH]nc(-c2ccc(F)cc2)c1-c1ccncc1)Nc1cc(Cl)cc(Cl)c1
inhibition [1]: 21%
inhibition [2]: 44%

Cc1c(-c2ccncc2)c(-c2ccc(F)cc2)nn1CC(=O)Nc1ccc(CCC(=O)c2cccnc2)cc1
inhibition [1]: 15%
inhibition [2]: 94%

O=[N+]([O-])c1ccc(S(=O)(=O)NCc2[nH]nc(-c3ccc(F)cc3)c2-c2ccncc2)cc1
inhibition [1]: 2%
inhibition [2]: 47%

CCOC(=O)C(CCSC)NC(=O)NCCc1[nH]nc(-c2ccc(F)cc2)c1-c1ccncc1 (stereo not drawn)
inhibition [1]: 54%
inhibition [2]: 69%

CC[C@H](NC(=O)Cn1nc(-c2ccc(F)cc2)c(-c2ccncc2)c1C)c1ccccc1
inhibition [1]: 35%
inhibition [2]: 48%

O=C(NCCCc1[nH]nc(-c2ccc(F)cc2)c1-c1ccncc1)c1ccccc1C(F)(F)F
inhibition [1]: 62%
inhibition [2]: 65%

CCOC(=O)CNC(=O)NCCc1[nH]nc(-c2ccc(F)cc2)c1-c1ccncc1
IC50 [1]: 1100 nM
inhibition [2]: 74%

CCN(CC)CCN(Cc1ccc(Cl)cc1)C(=O)Cn1nc(-c2ccc(F)cc2)c(-c2ccncc2)c1C
inhibition [1]: 10%
inhibition [2]: 55%

C=CCOC(=O)NCCCc1[nH]nc(-c2ccc(F)cc2)c1-c1ccncc1
IC50 [1]: 590 nM
inhibition [2]: 79%

Cc1c(-c2ccncc2)c(-c2ccc(F)cc2)nn1CC(=O)N(C)CCN(C)C
IC50 [1]: > 10000 nM
inhibition [2]: 62%

CN1CCN(CCCNC(=O)NCCCc2[nH]nc(-c3ccc(F)cc3)c2-c2ccncc2)CC1
IC50 [1]: > 1000 nM
IC50 [2]: 91 nM

Cc1c(-c2ccncc2)c(-c2ccc(F)cc2)nn1CC(=O)[C@H]1CCCN1C(=O)OCc1ccccc1
inhibition [1]: 19%
inhibition [2]: 79%

CN(C)C(=O)NCCc1[nH]nc(-c2ccc(F)cc2)c1-c1ccncc1
inhibition [1]: 52%
inhibition [2]: 75%

CCC(=O)C(=O)CNC(=O)NCc1[nH]nc(-c2ccc(F)cc2)c1-c1ccncc1
IC50 [1]: > 1000 nM
inhibition [2]: 51%

NC(=O)NCCc1[nH]nc(-c2ccc(F)cc2)c1-c1ccncc1
inhibition [1]: 60%
inhibition [2]: 76%

Cc1c(-c2ccncc2)c(-c2ccc(F)cc2)nn1CC(=O)N1CCC[C@H]1CN1CCCC1
inhibition [1]: 10%
inhibition [2]: 49%

COCCN(Cc1cccc(OC)c1)C(=O)Cn1nc(-c2ccc(F)cc2)c(-c2ccncc2)c1C
inhibition [1]: 22%
inhibition [2]: 37%

C[C@H](NC(=O)c1cc(F)cc(F)c1)c1[nH]nc(-c2ccc(F)cc2)c1-c1ccncc1
inhibition [1]: 45%
IC50 [2]: 62 nM

CCCS(=O)(=O)NCCc1[nH]nc(-c2ccc(F)cc2)c1-c1ccncc1
inhibition [1]: 35%
inhibition [2]: 82%

O=C(NCc1[nH]nc(-c2ccc(F)cc2)c1-c1ccncc1)c1cccc(CCl)c1
inhibition [1]: 21%
inhibition [2]: 83%

COCC(=O)NCCc1[nH]nc(-c2ccc(F)cc2)c1-c1ccncc1
inhibition [1]: 43%
inhibition [2]: 55%

CC(=O)Oc1cccc(C(=O)NCc2[nH]nc(-c3ccc(F)cc3)c2-c2ccncc2)c1
inhibition [1]: 52%
inhibition [2]: 98%

C[C@H](NC(=O)NCCc1[nH]nc(-c2ccc(F)cc2)c1-c1ccncc1)c1ccccc1
inhibition [1]: 12%
inhibition [2]: 79%

CCOC(=O)CCOC(=O)NCc1[nH]nc(-c2ccc(F)cc2)c1-c1ccncc1
inhibition [1]: 5%
inhibition [2]: 54%

COC(=O)[C@H](CCSC)NC(=O)Cn1nc(-c2ccc(F)cc2)c(-c2ccncc2)c1C
inhibition [1]: 36%
inhibition [2]: 58%

CNC(=O)CC[C@H](NC(=O)c1ccc(I)cc1)c1[nH]nc(-c2ccc(F)cc2)c1-c1ccncc1
inhibition [1]: 8%
IC50 [2]: 3280 nM

Cc1c(-c2ccncc2)c(-c2ccc(F)cc2)nn1CC(=O)N1CCCN(C)CC1
inhibition [1]: 24%
inhibition [2]: 51%

COc1ccccc1C(=O)NCCc1[nH]nc(-c2ccc(F)cc2)c1-c1ccncc1
inhibition [1]: 14%
inhibition [2]: 53%

CC(C)=CC(=O)NCCc1[nH]nc(-c2ccc(F)cc2)c1-c1ccncc1
inhibition [1]: 25%
inhibition [2]: 67%

O=S(=O)(NCCc1[nH]nc(-c2ccc(F)cc2)c1-c1ccncc1)c1ccc(F)cc1
inhibition [1]: 7%
inhibition [2]: 85%

O=C(NCCc1[nH]nc(-c2ccc(F)cc2)c1-c1ccncc1)Nc1cccc(Cl)c1Cl
inhibition [1]: 31%
inhibition [2]: 68%

C[C@H](NS(=O)(=O)c1ccccc1C(=O)O)c1[nH]nc(-c2ccc(F)cc2)c1-c1ccncc1
inhibition [1]: 70%
IC50 [2]: 760 nM

CC[C@H](C)NC(=O)Cn1nc(-c2ccc(F)cc2)c(-c2ccncc2)c1C
inhibition [1]: 38%
inhibition [2]: 76%

CC(C)c1ccccc1NC(=O)NCCc1[nH]nc(-c2ccc(F)cc2)c1-c1ccncc1
inhibition [1]: 29%
inhibition [2]: 80%

CCOC(=O)C(CC(C)C)NC(=O)C(=O)NCCc1[nH]nc(-c2ccc(F)cc2)c1-c1ccncc1 (stereo not drawn)
inhibition [1]: 26%
inhibition [2]: 60%

COc1ccc(Br)cc1S(=O)(=O)N[C@H](C)c1[nH]nc(-c2ccc(F)cc2)c1-c1ccncc1
inhibition [1]: 86%
IC50 [2]: 24 nM

O=C(NCCCc1[nH]nc(-c2ccc(F)cc2)c1-c1ccncc1)NCCN1CCOCC1
inhibition [1]: 20%
IC50 [2]: 55 nM

Cc1c(-c2ccncc2)c(-c2ccc(F)cc2)nn1CC(=O)N(C)CC(=O)N(C)C
inhibition [1]: 31%
inhibition [2]: 40%

Cc1c(-c2ccncc2)c(-c2ccc(F)cc2)nn1CC(=O)N[C@@H](C)C1CCCCC1
inhibition [1]: 38%
inhibition [2]: 64%

O=S(=O)(NCc1[nH]nc(-c2ccc(F)cc2)c1-c1ccncc1)c1cc(Cl)c(Cl)s1
IC50 [1]: 1810 nM
inhibition [2]: 78%

O=C(NCCc1[nH]nc(-c2ccc(F)cc2)c1-c1ccncc1)c1ccc(I)cc1
inhibition [1]: 33%
inhibition [2]: 58%

O=C(NCc1[nH]nc(-c2ccc(F)cc2)c1-c1ccncc1)N1CCOCC1
IC50 [1]: > 1000 nM
IC50 [2]: 560 nM

CCCCOc1ccc(NC(=O)NCc2[nH]nc(-c3ccc(F)cc3)c2-c2ccncc2)cc1
inhibition [1]: 13%
inhibition [2]: 42%

O=C(NCCc1[nH]nc(-c2ccc(F)cc2)c1-c1ccncc1)c1ccc(F)c(F)c1F
inhibition [1]: 22%
inhibition [2]: 69%

Cc1ccc(S(=O)(=O)N[C@@H](Cc2ccccc2)C(=O)NCCc2[nH]nc(-c3ccc(F)cc3)c2-c2ccncc2)cc1
inhibition [1]: 17%
inhibition [2]: 72%

C[C@H](NS(=O)(=O)c1ccccc1C#N)c1[nH]nc(-c2ccc(F)cc2)c1-c1ccncc1
inhibition [1]: 69%
IC50 [2]: 250 nM

O=C(NCc1[nH]nc(-c2ccc(F)cc2)c1-c1ccncc1)N1CCCC1
IC50 [1]: > 1000 nM
IC50 [2]: 550 nM

COc1cccc(C(=O)NCCCc2[nH]nc(-c3ccc(F)cc3)c2-c2ccncc2)c1
IC50 [1]: 790 nM
inhibition [2]: 71%

C[C@@H](NC(=O)NCCCc1[nH]nc(-c2ccc(F)cc2)c1-c1ccncc1)c1ccccc1
inhibition [1]: 9%
inhibition [2]: 65%

Cc1cccc(S(=O)(=O)N[C@H](C)c2[nH]nc(-c3ccc(F)cc3)c2-c2ccncc2)c1
inhibition [1]: 96%
IC50 [2]: 25 nM

O=C(NCCc1[nH]nc(-c2ccc(F)cc2)c1-c1ccncc1)Nc1ccc(Br)cc1
inhibition [1]: 29%
inhibition [2]: 51%

CC(C)(C)C(=O)NCCc1[nH]nc(-c2ccc(F)cc2)c1-c1ccncc1
inhibition [1]: 66%
inhibition [2]: 69%

COc1cccc(C(=O)NCCc2[nH]nc(-c3ccc(F)cc3)c2-c2ccncc2)c1
inhibition [1]: 23%
inhibition [2]: 54%

O=C(NCCCc1[nH]nc(-c2ccc(F)cc2)c1-c1ccncc1)C1CCC1
IC50 [1]: 990 nM
inhibition [2]: 66%

CCOC(=O)NC(=O)NCc1[nH]nc(-c2ccc(F)cc2)c1-c1ccncc1
inhibition [1]: 24%
inhibition [2]: 51%

O=C(NCCc1[nH]nc(-c2ccc(F)cc2)c1-c1ccncc1)Nc1ccc(C(F)(F)F)cc1
inhibition [1]: 20%
inhibition [2]: 82%

CC(NC(=O)NCCc1[nH]nc(-c2ccc(F)cc2)c1-c1ccncc1)c1cccc2ccccc12 (stereo not drawn)
inhibition [1]: 2%
inhibition [2]: 85%

Cc1c(-c2ccncc2)c(-c2ccc(F)cc2)nn1CC(=O)N1CCCCC1CCN1CCCCC1 (stereo not drawn)
inhibition [1]: 13%
inhibition [2]: 26%

CCOC(=O)C(CCSC)NC(=O)NCc1[nH]nc(-c2ccc(F)cc2)c1-c1ccncc1 (stereo not drawn)
inhibition [1]: 22%
inhibition [2]: 44%

CS(=O)(=O)NCCc1[nH]nc(-c2ccc(F)cc2)c1-c1ccncc1
inhibition [1]: 57%
inhibition [2]: 89%
